# Laboratory results taken from paper PMC12304293, “Combatting virulent gut bacteria by inhibiting the biosynthesis of a two-component lanthipeptide toxin” (Nature Communications, 2025).
# Several values for one entry are separate records, joined by “and”; a condition that tells them apart may be missing. Equal values may be shown once. Read-outs that look alike come from different tables or passages of the source. Non-standard residues stand in square brackets, D forms with d. Residues, ends and D or L forms follow the SMILES beside them. *: point of attachment. boroGlu = O=C(O)CC[C@H](N*)B(O)O; Gly(cPr) = N[C@H](C(=O)O)C1CC1
# Columns and labels:
# [1] = tested on: E. faecalis FA2-2 (pAM714), E. faecalis ATCC 29212; format: cell-based, Enterococcus faecalis; conditions: for growth curve reading, ATCC 29212 +9: E. faecalis ATCC 29212 with 9; for growth curve reading, ATCC 29212 +9 / growth curve reading, pAM714 +9: trials 1-3; for growth curve reading, pAM714 +9: E. faecalis pAM714 with 9
# Description: To a 96-well plate, BHI media was added containing 200 µM of inhibitor 9. An overnight culture of E. faecalis was diluted to a concentration of 10^6 CFU/mL and an equal volume of this culture was added to the well containing inhibitor. A growth control was prepared by combining the diluted bacterial cells with an equal volume of sterile BHI. A sterility control well was filled with sterile BHI to the same volume. The 96-well plate was transferred to a plate reader preheated to 37 °C and the plate was shaken continuously. The OD600 of each well was measured over the course of 24 h. Uncorrected OD600 values were plotted as a function of time. […]
# or B) E. faecalis ATCC 29212. Wells containing B HI media were inocul ated with 1 x 106 C F U / m L of E. faecalis .I nhibitor 9 was added to achieve a well concentration of 100 µM. A growth control well not containing 9 an d a sterile control not co ntaining bacteria were s et up on the same plate.
# The plate was incubated with shaking at 37 ̊C and the OD600 was measured every 30 min for 18h.
# This experiment was conducted on three biological samples (n = 3). Error bars represent the standard of devi ation and are c enter ed at the me an. Source data are p rovided as a Source Data file. […]
# [2] = tested on: CylLS” in C+ E. faecalis ATCC 29212; assay: Detection of CylLS” from extracts of E. faecalis (LCMS); format: cell-based, Enterococcus faecalis; conditions: for Concentration CylLS (Figure 8C), replicates 1-4: ATCC 29212 overnight culture extract; for Concentration CylLS (Figure 8C), avg: n = 4
# Description: To determine if inhibitor 9 blocks the maturation of cytolysin in C+ E. faecalis, an LCMS method was developed to estimate the concentration of CylLS” in cell extracts. This method employed biosynthetically prepared ^15N,^13C-labeled CylLS” as an internal standard. Cultures of E. faecalis were treated with inhibitor 9 or vehicle then lyophilized and extracted with methanol.
# An overnight culture of E. faecalis ATCC 29212 was diluted to an OD600 equal to 2.0 in BHI then further diluted 1000-fold in BHI. Inhibitor 9 or vehicle was added immediately after dilution and the inoculated samples were incubated with shaking at 37 °C for 20 h. Following incubation, a 400 µL aliquot of each sample was flash frozen and lyophilized. Each lyophilized sample was extracted with 400 µL of 90% methonal/10% water containing ^15N,^13C-labeled CylLS” (5.8 nM). Alternating rounds of water bath sonication and vortexing were used to homogenize the samples. Once homogenized, the samples were allowed to stand at room temperature for 1 h then were centrifuged at 16,000 g for 10 min, incubated at −20 °C for 1 h, and centrifuged at 16,000 g for 10 min. The supernatant was analyzed by LCMS using injection volumes of 5 µL. EIC corresponding to the exact masses of [M + 2H]^2+ and [M+Na+H]^2+ were integrated and the peak areas were added together giving the total CylLS” and internal standard responses. The concentration of CylLS” was estimated from the response ratio multiplied by the concentration of the internal standard.
smiles,measurement,setting,value
CC(=O)NCC(=O)N[C@@H](CC(=O)O)C(=O)N[C@H](C(=O)N[C@@H](CCC(N)=O)C(=O)N[C@@H](C)C(=O)N[C@@H](CCC(=O)O)B(O)O)C1CC1 [Compound 9] (Ac-GD[Gly(cPr)]QA-boroGlu),growth of C+ E. faecalis,"[1]; 100 µM, FA2-2 (pAM714) or ATCC 29212",did not impact the growth
same,"growth curve reading, ATCC 29212 +9",[1]; time 0 h,0.1154 and 0.116 and 0.0922
same,"growth curve reading, ATCC 29212 +9",[1]; time 0.5 h,0.0985 and 0.1041 and 0.0924
same,"growth curve reading, ATCC 29212 +9",[1]; time 1 h,0.1003 and 0.1065 and 0.0941
same,"growth curve reading, ATCC 29212 +9",[1]; time 4 h,0.3147 and 0.3334 and 0.308
same,"growth curve reading, ATCC 29212 +9",[1]; time 4.5 h,0.4828 and 0.507 and 0.4713
same,"growth curve reading, ATCC 29212 +9",[1]; time 5 h,0.7061 and 0.7328 and 0.6866
same,"growth curve reading, ATCC 29212 +9",[1]; time 6 h,0.8111 and 0.8333 and 0.7942
same,"growth curve reading, ATCC 29212 +9",[1]; time 6.5 h,0.8209 and 0.8395 and 0.8063
same,"growth curve reading, ATCC 29212 +9",[1]; time 7 h,0.8266 and 0.8438 and 0.8065
same,"growth curve reading, ATCC 29212 +9",[1]; time 8 h,0.8109 and 0.8262 and 0.7852
same,"growth curve reading, ATCC 29212 +9",[1]; time 8.5 h,0.7898 and 0.8142 and 0.7555
same,"growth curve reading, ATCC 29212 +9",[1]; time 9 h,0.756 and 0.7924 and 0.7138
same,"growth curve reading, ATCC 29212 +9",[1]; time 9.5 h,0.7216 and 0.7609 and 0.6743
same,"growth curve reading, ATCC 29212 +9",[1]; time 10 h,0.6983 and 0.7557 and 0.6452
same,"growth curve reading, ATCC 29212 +9",[1]; time 10.5 h,0.6599 and 0.7472 and 0.6197
same,"growth curve reading, ATCC 29212 +9",[1]; time 11 h,0.651 and 0.7261 and 0.5927
same,"growth curve reading, ATCC 29212 +9",[1]; time 12 h,0.5996 and 0.6855 and 0.5551
same,"growth curve reading, ATCC 29212 +9",[1]; time 12.5 h,0.6003 and 0.6798 and 0.5403
same,"growth curve reading, ATCC 29212 +9",[1]; time 13 h,0.594 and 0.6632 and 0.5265
same,"growth curve reading, ATCC 29212 +9",[1]; time 13.5 h,0.5622 and 0.6648 and 0.515
same,"growth curve reading, ATCC 29212 +9",[1]; time 14 h,0.5532 and 0.6505 and 0.5057
same,"growth curve reading, ATCC 29212 +9",[1]; time 14.5 h,0.547 and 0.6403 and 0.4947
same,"growth curve reading, ATCC 29212 +9",[1]; time 15 h,0.5331 and 0.6268 and 0.5432
same,"growth curve reading, ATCC 29212 +9",[1]; time 15.5 h,0.5632 and 0.6227 and 0.5048
same,"growth curve reading, ATCC 29212 +9",[1]; time 16 h,0.5401 and 0.6149 and 0.5008
same,"growth curve reading, ATCC 29212 +9",[1]; time 16.5 h,0.5274 and 0.6109 and 0.5013
same,"growth curve reading, ATCC 29212 +9",[1]; time 17 h,0.5274 and 0.5922 and 0.4935
same,"growth curve reading, ATCC 29212 +9",[1]; time 17.5 h,0.5197 and 0.5739 and 0.5382
same,"growth curve reading, ATCC 29212 +9",[1]; time 18 h,0.5155 and 0.5767 and 0.5324
same,"growth curve reading, pAM714 +9",[1]; time 0 h,0.0946 and 0.0915 and 0.093
same,"growth curve reading, pAM714 +9",[1]; time 0.5 h,0.0971 and 0.0931 and 0.0938
same,"growth curve reading, pAM714 +9",[1]; time 1 h,0.099 and 0.095 and 0.0956
same,"growth curve reading, pAM714 +9",[1]; time 4 h,0.1926 and 0.195 and 0.1996
same,"growth curve reading, pAM714 +9",[1]; time 4.5 h,0.2491 and 0.255 and 0.2626
same,"growth curve reading, pAM714 +9",[1]; time 5 h,0.3385 and 0.3521 and 0.3631
same,"growth curve reading, pAM714 +9",[1]; time 6 h,0.6065 and 0.6337 and 0.65
same,"growth curve reading, pAM714 +9",[1]; time 6.5 h,0.7256 and 0.7465 and 0.7496
same,"growth curve reading, pAM714 +9",[1]; time 7 h,0.7199 and 0.7425 and 0.7485
same,"growth curve reading, pAM714 +9",[1]; time 8 h,0.7208 and 0.7411 and 0.7548
same,"growth curve reading, pAM714 +9",[1]; time 8.5 h,0.7272 and 0.7466 and 0.7599
same,"growth curve reading, pAM714 +9",[1]; time 9 h,0.7255 and 0.7488 and 0.7571
same,"growth curve reading, pAM714 +9",[1]; time 9.5 h,0.7184 and 0.7445 and 0.7497
same,"growth curve reading, pAM714 +9",[1]; time 10 h,0.708 and 0.736 and 0.7402
same,"growth curve reading, pAM714 +9",[1]; time 10.5 h,0.6972 and 0.7258 and 0.7305
same,"growth curve reading, pAM714 +9",[1]; time 11 h,0.6856 and 0.717 and 0.7218
same,"growth curve reading, pAM714 +9",[1]; time 12 h,0.6642 and 0.6996 and 0.7054
same,"growth curve reading, pAM714 +9",[1]; time 12.5 h,0.6586 and 0.6909 and 0.6988
same,"growth curve reading, pAM714 +9",[1]; time 13 h,0.6446 and 0.6836 and 0.6924
same,"growth curve reading, pAM714 +9",[1]; time 13.5 h,0.6425 and 0.6781 and 0.6878
same,"growth curve reading, pAM714 +9",[1]; time 14 h,0.6308 and 0.6721 and 0.6814
same,"growth curve reading, pAM714 +9",[1]; time 14.5 h,0.6266 and 0.6677 and 0.6764
same,"growth curve reading, pAM714 +9",[1]; time 15 h,0.6144 and 0.6613 and 0.6745
same,"growth curve reading, pAM714 +9",[1]; time 15.5 h,0.6099 and 0.6586 and 0.6678
same,"growth curve reading, pAM714 +9",[1]; time 16 h,0.6043 and 0.6548 and 0.6659
same,"growth curve reading, pAM714 +9",[1]; time 16.5 h,0.6012 and 0.6523 and 0.6623
same,"growth curve reading, pAM714 +9",[1]; time 17 h,0.5956 and 0.6495 and 0.6597
same,"growth curve reading, pAM714 +9",[1]; time 17.5 h,0.5906 and 0.6489 and 0.6599
same,"growth curve reading, pAM714 +9",[1]; time 18 h,0.5896 and 0.647 and 0.6581
same,quantities of CylLS” less than the untreated control,"[2]; 100 µM, on average",5.5 fold
same,"Concentration CylLS (Figure 8C), replicates 1-4",[2]; Conc 1 uM of 9,1.79 nM and 1.72 nM and 1.6 nM and 1.8 nM
same,"Concentration CylLS (Figure 8C), avg",[2]; Conc 1 uM of 9,1.726 nM
same,"Concentration CylLS (Figure 8C), replicates 1-4",[2]; Conc 10 uM of 9,2.34 nM and 2.21 nM and 2.19 nM and 2.55 nM
same,"Concentration CylLS (Figure 8C), avg",[2]; Conc 10 uM of 9,2.322 nM
same,"Concentration CylLS (Figure 8C), replicates 1-4",[2]; Conc 100 uM of 9,0.272 nM and 0.227 nM and 0.262 nM and 0.247 nM
same,"Concentration CylLS (Figure 8C), avg",[2]; Conc 100 uM of 9,0.2518 nM
